Reference: patent US4035503A, “Xanthene and thioxanthene derivatives, compositions thereof and a method of preparation thereof” (Kefalas A/S, priority 1973, dated 1977)
Read-outs that look alike come from different tables or passages of the source.

Tested on: methylphenidate
Test: Methylphenidate antagonism in mice (antagonism of biting of corrugated paper)
Type: in vivo, NMRI male mice
Conditions: for ED50: Mus musculus; for ED50 / Methylphenidate antagonism, duration of peak effect: mice; for Methylphenidate antagonism, comparison in words (peak effect and duration): compared within the table, with known substances
Description: The test may briefly be described as follows:
As animals were used NMRI male mice weighting 18-25 grams.
5 × 2 mice are used for each dose level.
[…] At each time interval separate groups of mice were used. After administration of methylphenidate the mice are placed in the observation cages, 2 in each cage, where they remain for one hour. The cages are placed on corrugated paper, the corrugations facing upwards. It is examined whether or not the mice have been biting the corrugated paper. […] At each time interval separate groups of mice were used. The peak effect was determined for the test substances and also for a number of known neuroleptics.
The test was carried out on a number of the novel compounds of Formula I and on a number of closely related thiaxanthene derivatives.

[1] = ip, i.p. test substance, 24 h after administration, read-out: Methylphenidate antagonism, ED50 24 h i.p.
[2] = route p.c. [sic], at peak effect, read-out: Methylphenidate antagonism, Peak effect ED50 p.c.

Row | Compound | ED50 [1] | ED50 [2] | Methylphenidate antagonism, comparison in words (peak effect and duration) | Methylphenidate antagonism, duration of peak effect (i.p. test substance)
1 | CN(C)CC=CC1c2ccccc2Sc2ccc(Cl)cc21 (stereo not drawn) [Lu 8-030, 2-Chloro-9-(3-dimethylamino-1-propenyl)-thioxanthene] | > 20 mg/kg | 5.5 mg/kg | a more prolonged activity while the peak effect remains at the same level or is somewhat higher | 3 h
2 | OCCN1CCN(CC=CC2c3ccccc3Sc3ccc(C(F)(F)F)cc32)CC1 (stereo not drawn) [Lu 9-212, 2-Trifluoromethyl-9-(3-(4-(2-hydroxyethyl)-piperazin-1-yl)-1propenyl) thioxanthene] | > 10 mg/kg | 0.13 mg/kg | a more prolonged activity while the peak effect remains at the same level or is somewhat higher | 10 h
3 | OCCN1CCN(CC=CC2c3ccccc3Sc3ccc(Cl)cc32)CC1 (stereo not drawn) [Lu 9-244, 2-Chloro-9-(3-(4-(2-hydroxyethyl)piperazin-1-yl)-1-propenyl) thioxanthene] | 14.1 mg/kg | 0.22 mg/kg | a more prolonged activity while the peak effect remains at the same level or is somewhat higher | 10 h
4 | OCCN1CCN(CC=CC2c3ccc(F)cc3Sc3ccc(C(F)(F)F)cc32)CC1 (stereo not drawn) [Lu 10-153, 2-Trifluoromethyl-6-fluoro-9-(3-(4-(2-hydroxyethyl)piperazine1-yl)-1-propenyl)thioxanthene] | 0.06 mg/kg | 0.03 mg/kg | unique in combining at the same time the most potent peak effect but also the long lasting effect | 30 h
5 | CN(C)CC=CC1c2ccc(F)cc2Sc2ccc(C(F)(F)F)cc21 (stereo not drawn) [Lu 11-186, 2-Trifluoromethyl-6-fluoro-9-(3-dimethylamino-1-propenyl)-thioxanthene] |  | 0.08 mg/kg |  | 8 h
6 | OCCC1CCN(CC=CC2c3ccc(F)cc3Oc3ccc(C(F)(F)F)cc32)CC1 (stereo not drawn) [Lu 11-200, 2-Trifluoromethyl-6-fluoro-9-(3-(4-(2-hydroxyethyl)piperidin-1-yl)-1-propenyl) xanthene] | 1.6 mg/kg | 0.2 mg/kg |  | 17 h
7 | OCCC1CCN(CC=CC2c3ccc(F)cc3Sc3ccc(C(F)(F)F)cc32)CC1 (stereo not drawn) [Lu 12-001] | 0.1 mg/kg | 0.2 mg/kg |  | 72 h
8 | CN(C)CC/C=C1/c2ccccc2Sc2ccc(Cl)cc21 [α-chlorprothixen, trans-9-(3-dimethylaminopropylidene)-2-chloro-thioxanthene, reference compound] | > 20 mg/kg | 2.6 mg/kg |  | 2 h
9 | OCCN1CCN(CC/C=C2/c3ccccc3Sc3ccc(Cl)cc32)CC1 [α-clopenthixol, 9-[3-(4-(2-hydroxyethyl)piperazinyl-(1))-propylidene]-2-chloro-thioxanthene, reference compound] | > 20 mg/kg | 1.3 mg/kg |  | 6 h
10 | OCCN1CCN(CC/C=C2/c3ccccc3Sc3ccc(C(F)(F)F)cc32)CC1 [α-flupenthixol, 9-[3-(4-(2-hydroxyethyl)piperazinyl-(1))-propylidene]-2-trifluoromethyl-thioxanthene, reference compound] | > 20 mg/kg | 0.22 mg/kg |  | 6 h
